In patent US9730937B2, “RAF kinase modulator compounds and methods of use thereof” (AMBIT BIOSCIENCES CORPORATION, priority 2008, dated 2017) one finds S35 and Kd data, which are given here for 27 molecules.

For assay [1], the system named is panel of 290 distinct kinases (321 in the larger panel), excluding mutant variants. To be noted: kinase selectivity score, class symbols.
For assay [2], the target named is mutant BRAF kinase (Homo sapiens (Human), UniProt P15056, V600E). Conditions: read-out: BRAF V600E Kd, class symbols.
Sequence of mutant BRAF kinase (P15056 whole entry V600E): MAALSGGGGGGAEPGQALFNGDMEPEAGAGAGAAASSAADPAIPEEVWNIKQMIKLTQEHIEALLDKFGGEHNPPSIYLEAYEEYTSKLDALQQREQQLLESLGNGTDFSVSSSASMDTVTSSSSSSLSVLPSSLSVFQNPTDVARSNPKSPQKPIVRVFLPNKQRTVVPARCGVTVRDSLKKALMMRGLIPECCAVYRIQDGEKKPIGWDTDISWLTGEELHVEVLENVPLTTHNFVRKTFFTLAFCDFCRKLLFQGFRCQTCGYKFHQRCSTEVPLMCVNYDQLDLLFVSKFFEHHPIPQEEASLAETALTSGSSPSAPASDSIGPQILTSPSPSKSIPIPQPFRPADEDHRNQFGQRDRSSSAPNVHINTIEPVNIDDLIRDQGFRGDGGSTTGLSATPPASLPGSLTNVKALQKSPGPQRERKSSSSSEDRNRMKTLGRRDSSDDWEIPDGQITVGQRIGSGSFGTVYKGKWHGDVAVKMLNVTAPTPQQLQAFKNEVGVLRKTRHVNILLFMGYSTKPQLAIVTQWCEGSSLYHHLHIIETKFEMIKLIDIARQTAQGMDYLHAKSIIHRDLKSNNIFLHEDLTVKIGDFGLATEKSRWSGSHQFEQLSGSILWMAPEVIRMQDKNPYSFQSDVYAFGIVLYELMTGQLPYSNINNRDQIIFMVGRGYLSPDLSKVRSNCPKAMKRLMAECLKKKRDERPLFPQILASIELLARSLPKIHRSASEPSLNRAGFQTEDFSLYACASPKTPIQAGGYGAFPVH
Assay [3] addresses RAF kinases (Homo sapiens (Human), UniProt P04049). Conditions: read-out: RAF1 Kd, class symbols.
Where [4] appears, read: value marked * (larger kinase panel).

A word on the Kd: it is the constant that tells how readily two partners part at equilibrium.

Structures are written as SMILES. Where two headings read alike, the source gives them in different places. A value given as a limit tells only on which side of the number the result lay.

Sequence of RAF kinases (P04049 whole entry): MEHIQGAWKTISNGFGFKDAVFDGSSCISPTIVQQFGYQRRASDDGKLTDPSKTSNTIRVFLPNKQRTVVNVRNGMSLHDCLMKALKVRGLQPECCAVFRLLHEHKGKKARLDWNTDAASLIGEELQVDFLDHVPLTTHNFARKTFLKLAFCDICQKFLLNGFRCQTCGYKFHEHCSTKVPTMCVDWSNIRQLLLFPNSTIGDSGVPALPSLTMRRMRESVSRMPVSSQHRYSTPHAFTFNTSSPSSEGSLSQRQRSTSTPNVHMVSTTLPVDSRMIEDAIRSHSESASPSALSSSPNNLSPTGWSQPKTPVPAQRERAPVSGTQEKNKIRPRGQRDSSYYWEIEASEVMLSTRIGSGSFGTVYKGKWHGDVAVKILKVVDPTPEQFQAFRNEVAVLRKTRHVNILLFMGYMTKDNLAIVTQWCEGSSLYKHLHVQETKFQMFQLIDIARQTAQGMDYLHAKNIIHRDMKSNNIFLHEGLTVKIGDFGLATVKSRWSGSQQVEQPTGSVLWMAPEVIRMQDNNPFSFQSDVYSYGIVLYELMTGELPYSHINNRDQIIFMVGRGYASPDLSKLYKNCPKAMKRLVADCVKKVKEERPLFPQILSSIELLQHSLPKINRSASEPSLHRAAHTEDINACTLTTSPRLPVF

For `COc1cc2ncnc(Oc3cccc(NC(=O)Nc4cc(C(C)(C)C)on4)c3)c2cc1OCCN1CCCCC1` [Ex 16, 1-(5-tert-butylisoxazol-3-yl)-3-(3-(7-methoxy-6-(2-(piperidin-1-yl)ethoxy)quinazolin-4-yloxy)phenyl)urea], the S35 result in assay [1] (290 distinct kinases) was “C (0.20 < C ≦ 0.40)”. The Kd in assay [2] was < 250 nM; in assay [3], > 1000 nM.

With `COc1cc2ncnc(Oc3cccc(NC(=O)Nc4cc(C(C)(C)C)on4)c3)c2cc1OCCCN1CCS(=O)(=O)CC1` [Ex 26, 1-(5-tert-butyl-isoxazol-3-yl)-3-(3-{6-[3-(1,1-dioxo-thiomorpholin-4-yl)-propoxy]-7-methoxy-quinazolin-4-yloxy}-phenyl)-urea], the S35 entry in assay [1] (290 distinct kinases) is on record as “D (D > 0.40)”. The Kd in assay [2] and in assay [3] was < 250 nM in each case.

Consider `COc1cc2c(Oc3cccc(NC(=O)Nc4cc(C(C)(C)C)on4)c3)ncnc2cc1OCCCN1CCN(C)CC1` [Ex 28, 1-(5-tert-butylisoxazol-3-yl)-3-(3-(6-methoxy-7-(3-(4-methylpiperazin-1-yl)propoxy)quinazolin-4-yloxy)phenyl)urea], for which the S35 entry in assay [1] (290 distinct kinases) was “D (D > 0.40)”. The Kd in assay [2] and in assay [3] was < 250 nM throughout.

In the case of `COc1cc2ncnc(Sc3cccc(NC(=O)Nc4cc(C(C)(C)C)on4)c3)c2cc1OCCCN1CCN(CCO)CC1` [Ex 61, 1-(5-tert-butylisoxazol-3-yl)-3-(3-(6-(3-(4-(2-hydroxyethyl)piperazin-1-yl)propoxy)-7-methoxyquinazolin-4-ylthio)phenyl)urea], the S35 result in assay [1] (290 distinct kinases) was “D (D > 0.40)”. For the same molecule, the Kd in assay [2] and in assay [3] was < 250 nM in each case.

`COc1cc2ncnc(Sc3cccc(NC(=O)Nc4cc(C(C)(C)C)on4)c3)c2cc1OCCCN1CCS(=O)(=O)CC1` [Ex 62, 1-(5-tert-butyl-isoxazol-3-yl)-3-(3-{6-[3-(1,1-dioxo-thiomorpholin-4-yl)-propoxy]-7-methoxy-quinazolin-4-ylsulfanyl}-phenyl)-urea]: in assay [1] (290 distinct kinases), the S35 result is listed as “C (0.20 < C ≦ 0.40)”. The Kd in assay [2] and in assay [3] was < 250 nM in each case.

Take `COc1cc2ncnc(Sc3cccc(NC(=O)Nc4cc(C(C)(C)C)on4)c3)c2cc1OCCCN1CCOCC1` [Ex 63, 1-(5-tert-butylisoxazol-3-yl)-3-(3-(7-methoxy-6-(3-morpholinopropoxy)quinazolin-4-ylthio)phenyl)urea]: in assay [1] (290 distinct kinases), the S35 entry is “C (0.20 < C ≦ 0.40)”. For the same molecule, the Kd in assay [2] and in assay [3] was < 250 nM each time.

With `COc1cc2c(Sc3cccc(NC(=O)Nc4cc(C(C)(C)C)on4)c3)ncnc2cc1OCCN1CCN(S(C)(=O)=O)CC1` [Ex 81, 1-(5-tert-butylisoxazol-3-yl)-3-(3-(6-methoxy-7-(2-(4-(methylsulfonyl)piperazin-1-yl)ethoxy)quinazolin-4-ylthio)phenyl)urea], the S35 result in assay [1] (290 distinct kinases) was “C (0.20 < C ≦ 0.40)”. Also, the Kd in assay [2] is < 250 nM.

For `COc1cc2c(Sc3cccc(NC(=O)Nc4cc(C(C)(C)C)on4)c3)ncnc2cc1OCCN1CCN(C)CC1` [Ex 83, 1-(5-tert-butylisoxazol-3-yl)-3-(3-(6-methoxy-7-(2-(4-methylpiperazin-1-yl)ethoxy)quinazolin-4-ylthio)phenyl)urea], the S35 result in assay [1] (290 distinct kinases) is “C (0.20 < C ≦ 0.40)”. Further, the Kd in assay [2] was < 250 nM.

For the molecule `CC(C)(C)c1cc(NC(=O)Nc2cccc(Sc3ncnc4ccc(OCCCN5CCS(=O)(=O)CC5)cc34)c2)no1` [Ex 90, 1-(5-tert-butyl-isoxazol-3-yl)-3-(3-{6-[3-(1,1-dioxo-thiomorpholin-4-yl)-propoxy]-quinazolin-4-ylsulfanyl}-phenyl)-urea], the S35 result in assay [1] (290 distinct kinases) is on record as “C (0.20 < C ≦ 0.40)”. The Kd in assay [2] was < 250 nM.

On to `COc1cc2ncnc(Oc3cccc(NC(=O)Nc4cc(C(C)(C)C)on4)c3)c2cc1OCCN1CCS(=O)(=O)CC1` [Ex 91, 1-(5-tert-butyl-isoxazol-3-yl)-3-(3-{6-[2-(1,1-dioxo-thiomorpholin-4-yl)-ethoxy]-7-methoxy-quinazolin-4-yloxy}-phenyl)-urea], for which the S35 entry in assay [1] (290 distinct kinases) is “C (0.20 < C ≦ 0.40)”. For the same molecule, the Kd in assay [2] was < 250 nM.

In the case of `CC(C)(C)c1cc(NC(=O)Nc2cccc(Oc3ncnc4ccc(-c5ccc(CNCCS(C)(=O)=O)o5)cc34)c2)no1` [Ex 92, 1-(5-tert-butylisoxazol-3-yl)-3-{3-[6-(5-{[2-(methylsulfonyl)ethylamino]methyl}furan-2-yl)quinazolin-4-yloxy]phenyl}urea], in assay [1] (290 distinct kinases), the S35 result was “C (0.20 < C ≦ 0.40)”. Besides, the Kd in assay [2] was < 250 nM.

Regarding `COc1cc2c(Oc3cccc(NC(=O)Nc4cc(C(C)(C)C)on4)c3)ncnc2cc1O` [Ex 95, 1-(5-tert-butylisoxazol-3-yl)-3-(3-(7-hydroxy-6-methoxyquinazolin-4-yloxy)phenyl)urea], the S35 entry in assay [1] (290 distinct kinases) was “C (0.20 < C ≦ 0.40)”. For the same molecule, in assay [2], the Kd was < 250 nM.

For `COc1cc2c(Oc3cccc(NC(=O)Nc4cc(C(C)(C)C)on4)c3)ncnc2cc1O[C@H]1CCN(C)C1` [Ex 97, (S)-1-(5-tert-butylisoxazol-3-yl)-3-(3-(6-methoxy-7-(1-methylpyrrolidin-3-yloxy)quinazolin-4-yloxy)phenyl)urea mono acetate], in assay [1] (290 distinct kinases), the S35 result is recorded as “C (0.20 < C ≦ 0.40)”. In addition, the Kd in assay [2] is < 250 nM.

Regarding `COc1cc2c(Oc3cccc(NC(=O)Nc4cc(C(C)(C)C)on4)c3)ncnc2cc1O[C@@H]1CCN(C)C1` [Ex 99, (R)-1-(5-tert-butylisoxazol-3-yl)-3-(3-(6-methoxy-7-(1-methylpyrrolidin-3-yloxy)quinazolin-4-yloxy)phenyl)urea mono acetate], the S35 entry in assay [1] (290 distinct kinases) is on record as “C (0.20 < C ≦ 0.40)”. In addition, the Kd in assay [2] was < 250 nM.

As to `COc1cc2ncnc(Oc3cccc(NC(=O)Nc4cc(C(C)(C)C)on4)c3)c2cc1OC[C@H](O)CN1CCN(C)CC1` [Ex 112, (R)-1-(5-tert-butylisoxazol-3-yl)-3-(3-(6-(2-hydroxy-3-(4methylpiperazin-1-yl)propoxy)-7-methoxyquinazolin-4-yloxy)phenyl)urea], the S35 entry in assay [1] (290 distinct kinases) is recorded as “D (D > 0.40)”. Also, the Kd in assay [2] is < 250 nM.

In the case of `COc1cc2ncnc(Oc3cccc(NC(=O)Nc4cc(-c5ccccc5)on4)c3)c2cc1OC` [Ex 113, 1-(3-(6,7-dimethoxyquinazolin-4-yloxy)phenyl)-3-(5-phenylisoxazol-3-yl)urea], in assay [1] (290 distinct kinases), the S35 result is “B (0.10 < B ≦ 0.20)”. The Kd in assay [3] was < 250 nM.

Consider `COCCOc1cc2ncnc(Oc3cccc(NC(=O)Nc4cccc(C(C)(C)C)c4)c3)c2cc1OC` [Ex 119, 1-(3-tert-butylphenyl)-3-(3-(6-methoxy-7-(2-methoxyethoxy)quinazolin-4-yloxy)phenyl)urea], for which, in assay [1] (setting [4]), the S35 entry is listed as “C* (0.20 < C ≦ 0.40)”. Moreover, in assay [2], the Kd is < 250 nM.

For the molecule `COc1cc2ncnc(Oc3cccc(NC(=O)Nc4cc(C(F)(F)F)ncn4)c3)c2cc1OC` [Ex 146, 1-(3-(6,7-dimethoxyquinazolin-4-yloxy)phenyl)-3-(6-(trifluoromethyl)pyrimidin-4-yl)urea], the S35 result in assay [1] (setting [4]) is listed as “B* (0.10 < B ≦ 0.20)”. Besides, the Kd in assay [2] was < 250 nM.

In the case of `COc1cc2ncnc(Oc3cccc(NC(=O)Nc4cc(C(C)(F)F)no4)c3)c2cc1OC` [Ex 152, 1-(3-(1,1-difluoroethyl)isoxazol-5-yl)-3-(3-(6,7-dimethoxyquinazolin-4-yloxy)phenyl)urea], the S35 result in assay [1] (setting [4]) is “C* (0.20 < C ≦ 0.40)”. Moreover, the Kd in assay [2] was < 250 nM.

Turning to `COc1cc2ncnc(Sc3cccc(NC(=O)Nc4cc(C(C)(C)C)nn4C)c3)c2cc1OC` [Ex 157, 1-(3-tert-butyl-1-methyl-1H-pyrazol-5-yl)-3-(3-(6,7-dimethoxyquinazolin-4-ylthio)phenyl)urea], in assay [1] (setting [4]), the S35 result is on record as “C* (0.20 < C ≦ 0.40)”. In assay [2], the Kd is < 250 nM.

As to `COc1cc2ncnc(Sc3cccc(NC(=O)Nc4cc(C(C)(CF)CF)no4)c3)c2cc1OC` [Ex 160, 1-[3-(1,3-difluoro-2-methylpropan-2-yl)isoxazol-5-yl]-3-[3-(6,7-dimethoxyquinazolin-4-ylthio]phenyl)urea], the S35 result in assay [1] (setting [4]) is “C* (0.20 < C ≦ 0.40)”. For the same molecule, the equilibrium dissociation constant (Kd) in assay [2] is < 250 nM.

On to `COc1cc2ncnc(Oc3cccc(NC(=O)Nc4ccc(C(C)(C)C)cc4)c3)c2cc1OC` [Ex 173, 1-(4-tert-butylphenyl)-3-(3-(6,7-dimethoxyquinazolin-4-yloxy)phenyl)urea], for which the S35 entry in assay [1] (290 distinct kinases) was “C (0.20 < C ≦ 0.40)”. Further, the Kd in assay [2] is < 250 nM.

As to `COc1cc2ncnc(Oc3cccc(NC(=O)Nc4ccc(Cl)c(C(F)(F)F)c4)c3)c2cc1OC` [Ex 176, 1-(4-chloro-3-(trifluoromethyl)phenyl)-3-(3-(6,7-dimethoxyquinazolin-4-yloxy)phenyl)urea], the S35 result in assay [1] (290 distinct kinases) is “C (0.20 < C ≦ 0.40)”. In addition, the Kd in assay [2] was < 250 nM.

In the case of `COc1cccc(NC(=O)Nc2cccc(Oc3ncnc4cc(OC)c(OC)cc34)c2)c1` [Ex 178, 1-(3-(6,7-dimethoxyquinazolin-4-yloxy)phenyl)-3-(3-methoxyphenyl)urea], the S35 entry in assay [1] (setting [4]) is on record as “B* (0.10 < B ≦ 0.20)”. Also, the Kd in assay [2] was < 250 nM.

Consider `CCOc1cccc(NC(=O)Nc2cccc(Oc3ncnc4cc(OC)c(OC)cc34)c2)c1` [Ex 179, 1-(3-(6,7-dimethoxyquinazolin-4-yloxy)phenyl)-3-(3-ethoxyphenyl)urea], for which the S35 entry in assay [1] (setting [4]) is “B* (0.10 < B ≦ 0.20)”. In addition, in assay [2], the Kd was < 250 nM.

`COCCOc1cc(NC(=O)Nc2cccc(Sc3ncnc4cc(OC)c(OC)cc34)c2)cc(C(F)(F)F)c1` [Ex 200, 1-(3-(6,7-dimethoxyquinazolin-4-ylthio)phenyl)-3-(3-(2-methoxyethoxy)-5-(trifluoromethyl)phenyl)urea]: the S35 result in assay [1] (290 distinct kinases) was “C (0.20 < C ≦ 0.40)”. In assay [3], the Kd is > 1000 nM.

On to `COCCOc1cc2ncnc(Oc3cccc(NC(=O)Nc4cc(C(C)(C)C)no4)c3)c2cc1OC` [Ex 202, 1-(3-tert-butylisoxazol-5-yl)-3-(3-(6-methoxy-7-(2-methoxyethoxy)quinazolin-4-yloxy)phenyl)urea], for which the S35 entry in assay [1] (290 distinct kinases) is listed as “C (0.20 < C ≦ 0.40)”. Also, the Kd in assay [2] was < 250 nM.
